This is an account of results in PMC6717000 (Biosensors & bioelectronics, 2019).

Each structure is given as a SMILES string.

The test system of this assay is Acid phosphatase from potato (AcP). Put plainly: phenolCEST MRI of released phenol, initial velocity over […] min. Format: biochemical, Solanum tuberosum. The settings on record: pH 5.0, 37 °C, 10 mM acetate buffer, 10 mM Mg2+.

Regarding `O=P(O)(O)Oc1ccccc1` [PP, phenyl phosphate], the Km turned out to be 3.5 mM.
